Legend:
[1] = test system: green foxtail; assay: Test D preemergence; assay type: in vivo, Setaria viridis
Method in brief: (§1)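 In a controlled growth environment, treated and control plants were held 7 to 21 days, then compared visually. Damage was scored 0–100, where 100 means complete control. Sprays contained surfactant in a non-phytotoxic solvent; post-applied plants were at the 1- to 4-leaf stage.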

[2] = test system: chamomile; assay: Test D preemergence; assay type: in vivo, Matricaria inodora
From the text: Seeds of plant species selected from bluegrass (annual bluegrass, Poa annua), blackgrass (Alopecurus myosuroides), canarygrass (littleseed canarygrass, Phalaris minor), chickweed (common chickweed, Stellaria media), galium (catchweed bedstraw, Galium aparine), bromegrass, downy (downy bromegrass, Bromus tectorum), field poppy (Papaver rhoeas), field violet (Viola arvensis), green foxtail (Setaria viridis), deadnettle (henbit deadnettle, Lamium amplexicaule), Italian ryegrass (Lolium multiflorum), kochia (Kochia scoparia), lambsquarters (Chenopodium album), oilseed rape (Brassica napus), pigweed (Amaranthus retroflexus), chamomile (scentless chamomile, Matricaria inodora), Russian thistle (Salsola kali), speedwell (bird's-eye speedwell, Veronica persica), spring barley (Hordeum vulgare), spring wheat (Triticum aestivum), wild buckwheat (Polygonum convolvulus), wild mustard (Sinapis arvensis), wild oat (Avena fatua), wild radish (Raphanus raphanistrum), windgrass (Apera spica-venti), winter barley (Hordeum vulgare), and winter wheat (Triticum aestivum) were planted into a silt loam soil and treated preemergence with test chemicals formulated in a non-phytotoxic solvent mixture which included a surfactant.
At the same time, these species were planted in pots containing Redi-Earth® planting medium (Scotts Company, 14111 Scottslawn Road, Marysville, Ohio 43041) comprising spaghnum peat moss, vermiculite, wetting agent and starter nutrients and treated with postemergence applications of the test chemicals formulated in the same manner. Plants ranged in height from 2 to 18 cm (1- to 4-leaf stage). Treated plants and controls were maintained in a controlled growth environment for 7 to 21 days after which time all species were compared to controls and visually evaluated. Plant response ratings, summarized in Table D, are based on a scale of 0 to 100 where 0 is no effect and 100 is complete control. A dash (-) response means no test result.

[3] = test system: canarygrass; assay: Test D preemergence; assay type: in vivo, Phalaris minor
Method in brief: as §1

[4] = test system: galium; assay: Test D postemergence; assay type: in vivo, Galium aparine
Method in brief: as §1

[5] = test system: wild radish; assay: Test D preemergence; assay type: in vivo, Raphanus raphanistrum
Method in brief: as §1

[6] = test system: pigweed; assay: Test D preemergence; assay type: in vivo, Amaranthus retroflexus
Method in brief: as §1

[7] = test system: field violet; assay: Test D postemergence; assay type: in vivo, Viola arvensis
Method in brief: as §1

[8] = test system: oilseed rape; assay: Test D preemergence; assay type: in vivo, Brassica napus
Method in brief: as §1

[9] = test system: galium; assay: Test D preemergence; assay type: in vivo, Galium aparine
Method in brief: as §1

[10] = test system: speedwell; assay: Test D preemergence; assay type: in vivo, Veronica persica
Method in brief: as §1

[11] = test system: pigweed; assay: Test D postemergence; assay type: in vivo, Amaranthus retroflexus
Method in brief: as §1

[12] = 31 g ai/ha, scale 0 (no effect) to 100 (complete control)
[13] = 62 g ai/ha, scale 0 to 100 (0 no effect, 100 complete control)
[14] = 125 g ai/ha, scale 0 to 100 (0 no effect, 100 complete control)
[15] = 250 g ai/ha, scale 0 to 100 (0 no effect, 100 complete control)

For `N#Cc1cccc(Oc2ncc(Cl)cn2)c1-n1cc(-n2ccc(C(F)(F)F)n2)cn1` [Compound 284], which “Plant response rating, Foxtail, Green” value [1, 12] is on record?
The value was 10.

What about the “Plant response rating, Foxtail, Green” value ([1]; 62 g ai/ha, scale 0-100) of the same molecule?
Its value is 5.

What about the “Plant response rating, Foxtail, Green” value ([1]; 125 g ai/ha, scale 0-100) of the same molecule?
The value was 10.

What about the “Plant response rating, Foxtail, Green” value ([1]; 250 g ai/ha, scale 0-100) of the same molecule?
The value was 80.

What about the “Plant response rating, Chamomile” value [2, 12] of the same molecule?
The value was 100.

And the “Plant response rating, Chamomile” value ([2]; 62 g ai/ha, scale 0-100)?
The value was 100.

What about the “Plant response rating, Chamomile” value ([2]; 125 g ai/ha, scale 0-100) of the same molecule?
Its value is 100.

And the “Plant response rating, Chamomile” value ([2]; 250 g ai/ha, scale 0-100)?
The value was 100.

And the “Plant response rating, Canarygrass” value [3, 12]?
Its value is 30.

What about the “Plant response rating, Canarygrass” value ([3]; 62 g ai/ha, scale 0-100) of the same molecule?
Its value is 25.

And the “Plant response rating, Canarygrass” value ([3]; 125 g ai/ha, scale 0-100)?
The value was 35.

And the “Plant response rating, Canarygrass” value ([3]; 250 g ai/ha, scale 0-100)?
The value was 60.

And the “Plant response rating, Galium” value ([4]; 31 g ai/ha, scale 0-100)?
Its value is 70.

And the “Plant response rating, Galium” value [4, 13]?
Its value is 85.

What about the “Plant response rating, Galium” value [4, 14] of the same molecule?
Its value is 85.

And the “Plant response rating, Galium” value [4, 15]?
The value was 95.

And the “Plant response rating, Radish, Wild” value [5, 12]?
The value was 0.

What about the “Plant response rating, Radish, Wild” value ([5]; 125 g ai/ha, scale 0-100) of the same molecule?
Its value is 0.

And the “Plant response rating, Radish, Wild” value ([5]; 250 g ai/ha, scale 0-100)?
The value was 35.

What about the “Plant response rating, Pigweed” value [6, 12] of the same molecule?
Its value is 75.

And the “Plant response rating, Pigweed” value ([6]; 125 g ai/ha, scale 0-100)?
The value was 100.

And the “Plant response rating, Pigweed” value ([6]; 250 g ai/ha, scale 0-100)?
Its value is 100.

What about the “Plant response rating, Field Violet” value ([7]; 31 g ai/ha, scale 0-100) of the same molecule?
Its value is 100.

And the “Plant response rating, Field Violet” value [7, 13]?
The value was 85.

What about the “Plant response rating, Field Violet” value [7, 14] of the same molecule?
Its value is 100.

And the “Plant response rating, Field Violet” value [7, 15]?
Its value is 100.

What about the “Plant response rating, Oilseed Rape” value [8, 12] of the same molecule?
Its value is 0.

What about the “Plant response rating, Oilseed Rape” value ([8]; 62 g ai/ha, scale 0-100) of the same molecule?
The value was 0.

And the “Plant response rating, Oilseed Rape” value ([8]; 125 g ai/ha, scale 0-100)?
The value was 10.

And the “Plant response rating, Oilseed Rape” value ([8]; 250 g ai/ha, scale 0-100)?
Its value is 10.

And the “Plant response rating, Galium” value [9, 12]?
The value was 20.

What about the “Plant response rating, Galium” value ([9]; 62 g ai/ha, scale 0-100) of the same molecule?
Its value is 20.

What about the “Plant response rating, Galium” value ([9]; 125 g ai/ha, scale 0-100) of the same molecule?
The value was 20.

And the “Plant response rating, Galium” value ([9]; 250 g ai/ha, scale 0-100)?
The value was 25.

What about the “Plant response rating, Speedwell” value [10, 12] of the same molecule?
Its value is 0.

What about the “Plant response rating, Speedwell” value ([10]; 125 g ai/ha, scale 0-100) of the same molecule?
Its value is 100.

And the “Plant response rating, Speedwell” value ([10]; 250 g ai/ha, scale 0-100)?
Its value is 100.

What about the “Plant response rating, Pigweed” value ([11]; 31 g ai/ha, scale 0-100) of the same molecule?
Its value is 100.

And the “Plant response rating, Pigweed” value [11, 13]?
The value was 100.

What about the “Plant response rating, Pigweed” value [11, 14] of the same molecule?
The value was 100.

And the “Plant response rating, Pigweed” value [11, 15]?
Its value is 100.
